Data taken from PubChem BioAssay AID1259408 (Genetic Toxicology Data Bank (GENE-TOX), 2018).
The source made the active and inactive calls. How the calls were made is not given here.

Tested on: GENE-TOX genotoxicity assays, various organisms and cells
Assay: GENE-TOX mutagenicity studies
Conditions: for call: Assay Type: In vivo carcinogenicity studies
[1] = Species/Cell Type: Human lymphocytes, Assay Type: Sister-chromatid exchange (SCE) in vitro, Assay Code: SCLT, Evaluation Type: Evaluation B (Post-1980)
[2] = Species/Cell Type: Human, Assay Type: Sister-chromatid exchange (SCE) in vitro, Assay Code: SC1T, Evaluation Type: Evaluation B (Post-1980)
[3] = Species/Cell Type: Mammalian polychromatic erythrocytes, Assay Type: Micronucleus test, chromosome aberrations, Assay Code: MNTT, Evaluation Type: Evaluation B (Post-1980)
[4] = Species/Cell Type: Chinese hamster lung (V79) cells, Assay Type: Forward gene mutation at the HPRT or ouabain locus, Assay Code: V79-*, Activation: With metabolic activation, Evaluation Type: Evaluation A (Pre-1980)
[5] = Species/Cell Type: Chinese hamster lung (V79) cells, Assay Type: Forward gene mutation at the HPRT or ouabain locus, Assay Code: V79-, Evaluation Type: Evaluation A (Pre-1980)
[6] = Species/Cell Type: Human diploid fibroblasts, Assay Type: Unscheduled DNA synthesis (UDS) in vitro, DNA effects, Assay Code: UDH-, Evaluation Type: Evaluation A (Pre-1980)
[7] = Species/Cell Type: Salmonella typhimurium (one or more of the five standard strains: TA98, TA100, TA1535, TA1537, and TA1538), Assay Type: Histidine reverse gene mutation, Ames assay, Assay Code: SALT, Evaluation Type: Evaluation A (Pre-1980)
[8] = Species/Cell Type: Human lymphocytes, Assay Type: Sister-chromatid exchange (SCE) in vitro, Assay Code: SCL+D, Dose Response: With dose response, Evaluation Type: Evaluation B (Post-1980)
[9] = Species/Cell Type: Human, Assay Type: Sister-chromatid exchange (SCE) in vitro, Assay Code: SC1+D, Dose Response: With dose response, Evaluation Type: Evaluation B (Post-1980)
[10] = Species/Cell Type: Salmonella typhimurium (one or more of the five standard strains: TA98, TA100, TA1535, TA1537, and TA1538), Assay Type: Histidine reverse gene mutation, Ames assay, Assay Code: SAL+, Evaluation Type: Evaluation A (Pre-1980)
[11] = Species/Cell Type: Bacillus subtilis (H17 vs M45), Assay Type: Rec-assay, spot test, DNA effects (bacterial DNA repair), Assay Code: REW+, Evaluation Type: Evaluation A (Pre-1980)
[12] = Species/Cell Type: Nonhuman, Assay Code: CCG+, Evaluation Type: Evaluation A (Pre-1980)
[13] = Species/Cell Type: Salmonella typhimurium (one or more of the five standard strains: TA98, TA100, TA1535, TA1537, and TA1538), Assay Type: Histidine reverse gene mutation, Ames assay, Assay Code: SAL+*, Activation: With metabolic activation, Evaluation Type: Evaluation A (Pre-1980)
[14] = Species/Cell Type: Syrian hamster embryo (SHE) cells, Assay Type: Cell transformation, clonal assay, Assay Code: CTCT, Evaluation Type: Evaluation A (Pre-1980)
[15] = Species/Cell Type: Chinese hamster ovary (CHO) cells, Assay Type: Forward gene mutation at the HPRT locus, Assay Code: CHO+, Evaluation Type: Evaluation B (Post-1980)

N[C@@H](CS)C(=O)O
mutagenic call (Species/Cell Type: Allium cepa, Assay Type: Chromosome aberrations, Assay Code: ALC-, Evaluation Type: Evaluation A (Pre-1980)): inactive; negative
mutagenic call [1]: no conclusion
mutagenic call [2]: no conclusion
mutagenic call (Species/Cell Type: Nonhuman, Assay Type: Sister-chromatid exchange (SCE) in vitro, Assay Code: SC2+D, Dose Response: With dose response, Evaluation Type: Evaluation B (Post-1980)): active; positive

c1ccncc1
mutagenic call [3]: no conclusion
mutagenic call (Species/Cell Type: Nonhuman, Assay Type: Sister-chromatid exchange (SCE) in vitro, Assay Code: SC2+D, Dose Response: With dose response, Evaluation Type: Evaluation A (Pre-1980)): active; positive

OC1c2ccccc2-c2cc3ccccc3cc2C1O (stereo not drawn)
mutagenic call [4]: inactive; negative
mutagenic call [5]: inactive; negative
mutagenic call (Species/Cell Type: Drosophila melanogaster, Assay Type: Sex-linked recessive lethal gene mutation, Assay Code: SRLT, Evaluation Type: Evaluation A (Pre-1980)): no conclusion
mutagenic call [6]: inactive; negative
mutagenic call (Species/Cell Type: Mouse prostate cells, Assay Type: Cell transformation, Assay Code: CTM-, Evaluation Type: Evaluation A (Pre-1980)): inactive; negative
mutagenic call (Species/Cell Type: Syrian hamster embryo (SHE) cells, Assay Type: Cell transformation, clonal assay, Assay Code: CTC+, Evaluation Type: Evaluation A (Pre-1980)): active; positive

Nc1ccc(C(=O)O)c(O)c1
mutagenic call (Species/Cell Type: Escherichia coli polA (W3119 vs P3478), Assay Type: Rec-assay, DNA effects (bacterial DNA repair), Assay Code: RE1T, Evaluation Type: Evaluation A (Pre-1980)): no conclusion

O=C(COc1ccc(Br)cc1CN1CCOCC1)N/N=C/c1ccccc1O
mutagenic call (Species/Cell Type: Saccharomyces cerevisiae, Assay Type: Reverse gene mutation, Assay Code: YERT, Evaluation Type: Evaluation A (Pre-1980)): no conclusion

CCC(Cc1c(I)cc(I)c(N)c1I)C(=O)O (stereo not drawn)
mutagenic call [1]: no conclusion
mutagenic call [2]: no conclusion

Cn1c(=O)c(N)c(-c2ccccc2)c2cc(Cl)ccc21
mutagenic call [7]: no conclusion

O=Cc1ccco1
mutagenic call [8]: active; positive
mutagenic call [9]: active; positive
mutagenic call [10]: active; positive

O=C(O)C(=O)c1ccc(Cl)cc1
mutagenic call (Species/Cell Type: Nonhuman, Assay Type: Sister-chromatid exchange (SCE) in vitro, Assay Code: SC2-, Evaluation Type: Evaluation B (Post-1980)): inactive; negative

S=C([S-])NCCNC(=S)[S-].[Zn+2]
mutagenic call [6]: inactive; negative
mutagenic call (Species/Cell Type: Saccharomyces cerevisiae, Assay Type: Mitotic recombination or gene conversion, Assay Code: YEC+, Evaluation Type: Evaluation A (Pre-1980)): active; positive
mutagenic call (Species/Cell Type: Saccharomyces cerevisiae, Assay Type: Mitotic recombination or gene conversion, Assay Code: YEH-, Evaluation Type: Evaluation A (Pre-1980)): inactive; negative

Cc1ccccc1C
mutagenic call [3]: no conclusion

O=C(Nc1cccc(Cl)c1)OCC#CCCl
mutagenic call [11]: active; positive

Cc1cc(O)c2c(c1)C(=O)C13C(=C2O)C(=O)C2C(O)C1C1C(O)C3C(=O)C3=C(O)c4c(O)cc(C)cc4C(=O)C321 (stereo not drawn)
mutagenic call [11]: active; positive

O=S1(=O)OC2(c3ccc(O)cc3Oc3cc(O)ccc32)c2ccccc21
mutagenic call [7]: no conclusion

C[As](SC#N)SC#N
mutagenic call [11]: active; positive

O=c1cc(-c2ccccc2)oc2c1ccc1ccccc12
mutagenic call [8]: active; positive
mutagenic call [9]: active; positive
mutagenic call (Species/Cell Type: Human, Assay Type: Sister-chromatid exchange (SCE) in vitro, Assay Code: SC1T, Evaluation Type: Evaluation A (Pre-1980)): no conclusion
mutagenic call [3]: no conclusion
mutagenic call (Species/Cell Type: Syrian hamster embryo (SA7/SHE) cells, Assay Type: Cell transformation, viral enhanced, Assay Code: CT7-, Evaluation Type: Evaluation A (Pre-1980)): inactive; negative

COc1ccc([N+](=O)[O-])cc1N
call [12]: active; positive
mutagenic call [10]: active; positive

O=C(c1ccc2c(c1)OCO2)C1CO1 (stereo not drawn)
mutagenic call [10]: active; positive

Cc1ccc(N)cc1N
mutagenic call (Species/Cell Type: Drosophila melanogaster, Assay Type: Sex-linked recessive lethal gene mutation, Assay Code: SRL+, Evaluation Type: Evaluation A (Pre-1980)): active; positive
mutagenic call (Species/Cell Type: Mouse, Sex: Male, Assay Type: Sperm morphology, Assay Code: SPI-, Evaluation Type: Evaluation A (Pre-1980)): inactive; negative
mutagenic call (Species/Cell Type: Neurospora crassa, Assay Type: Aneuploidy, chromosome aberrations, Assay Code: NEN-, Evaluation Type: Evaluation A (Pre-1980)): inactive; negative
call [12]: active; positive
mutagenic call (Species/Cell Type: Nonhuman, Assay Type: Sister-chromatid exchange (SCE) in vivo, Assay Code: SC3+, Evaluation Type: Evaluation B (Post-1980)): active; positive
mutagenic call [13]: active; positive
mutagenic call [14]: no conclusion

Nc1ncc(/C=C/c2ccc([N+](=O)[O-])o2)nn1
mutagenic call (Species/Cell Type: Bacillus subtilis (H17 vs M45), Assay Type: Rec-assay, spot test, DNA effects (bacterial DNA repair), Assay Code: REW-, Evaluation Type: Evaluation A (Pre-1980)): inactive; negative
mutagenic call (Species/Cell Type: Escherichia coli WP2, Assay Type: Tryptophan reverse gene mutation, Assay Code: WP2+, Evaluation Type: Evaluation A (Pre-1980)): active; positive
mutagenic call (Species/Cell Type: Escherichia coli WP2 UVRA, Assay Type: Tryptophan reverse gene mutation, Assay Code: WPU+D, Dose Response: With dose response, Evaluation Type: Evaluation A (Pre-1980)): active; positive

Cl[Te](Cl)(Cl)Cl
mutagenic call [11]: active; positive

CO[C@@H]1[C@H](C)O[C@@H](O[C@@H]2C[C@H](Oc3cc(O)c4c(O)c5c(cc4c3)C[C@@H]([C@H](OC)C(=O)[C@@H](O)[C@@H](C)O)[C@H](O[C@@H]3C[C@H](OC4C[C@H](O)[C@@H](O)[C@H](C)O4)[C@@H](O)[C@H](C)O3)C5=O)O[C@H](C)[C@@H]2O)C[C@@H]1O (stereo partly drawn)
mutagenic call [15]: active; positive

Cc1cc2ccccc2c2ccc3ccc(F)cc3c12
mutagenic call [7]: no conclusion

OC[C@@H](O)[C@@H](O)[C@H](O)[C@H](O)CO
mutagenic call (Species/Cell Type: Escherichia coli WP2 UVRA, Assay Type: Tryptophan reverse gene mutation, Assay Code: WPU-*, Activation: With metabolic activation, Evaluation Type: Evaluation A (Pre-1980)): inactive; negative
call (Species/Cell Type: Nonhuman, Assay Code: CCG-, Evaluation Type: Evaluation A (Pre-1980)): inactive; negative

CC1=CCc2c1c(C)c(C)c1c2ccc2ccccc21
mutagenic call [13]: active; positive

NC(N)=NS(=O)(=O)c1ccc(N)cc1
mutagenic call (Species/Cell Type: Salmonella typhimurium (one or more of the five standard strains: TA98, TA100, TA1535, TA1537, and TA1538), Assay Type: Histidine reverse gene mutation, Ames assay, Assay Code: SAL-, Evaluation Type: Evaluation A (Pre-1980)): inactive; negative

Clc1c(N2CC2)nc(N2CC2)nc1N1CC1
mutagenic call (Species/Cell Type: Aspergillus nidulans, Assay Type: Reverse gene mutation, Assay Code: ASR+, Evaluation Type: Evaluation A (Pre-1980)): active; positive

O[C@@H]1C=Cc2cc3ccc4cccc5ccc(c2[C@H]1O)c3c45
mutagenic call [4]: inactive; negative
call (Species/Cell Type: Nonhuman, Assay Code: CCGT, Evaluation Type: Evaluation A (Pre-1980)): no conclusion
mutagenic call (Species/Cell Type: Nonhuman, Assay Type: Sister-chromatid exchange (SCE) in vitro, Assay Code: SC2+, Evaluation Type: Evaluation A (Pre-1980)): active; positive
mutagenic call [7]: no conclusion
mutagenic call [14]: no conclusion

COc1cc(NO)ccc1N=Nc1ccccc1
mutagenic call [7]: no conclusion

CC1(C)CN1
mutagenic call (Species/Cell Type: Schizosaccharomyces pombe, Assay Type: Reverse gene mutation, Assay Code: YEZ+, Evaluation Type: Evaluation A (Pre-1980)): active; positive

O[C@H]1[C@@H](O)Cc2c(cc3ccc4cccc5ccc2c3c45)[C@@H]1O
mutagenic call [5]: inactive; negative

COc1cc([C@@H]2c3cc4c(cc3[C@@H](O[C@@H]3O[C@H](CO)[C@@H](O)[C@H](O)[C@H]3O)[C@H]3COC(=O)[C@H]23)OCO4)cc(OC)c1O
mutagenic call [15]: active; positive

[Cl][Ge]([Cl])([Cl])[Cl]
mutagenic call [11]: active; positive

Cc1ccc(S(=O)(=O)N(C)N=O)cc1
mutagenic call (Species/Cell Type: Arabidopsis species, Assay Type: Gene mutation, Assay Code: ARM+, Evaluation Type: Evaluation A (Pre-1980)): active; positive

[S]=[Cd]
mutagenic call (Species/Cell Type: Human lymphocytes or leukocytes, Assay Type: Chromosome aberrations in vitro, Assay Code: CY7+, Evaluation Type: Evaluation A (Pre-1980)): active; positive
call [12]: active; positive
